Results: publication PMC8596301 (Frontiers in Pharmacology, 2021)
Where two headings read alike, the source gives them in different places.

Tests used:
FLAG-mouse δOR [1] = biological target: T1, FLAG-mouse δOR (Mus musculus, UniProt P32300); test: cell-based; settings: for Emax: HEK293, read-out: cAMP α (% inhibition at maximal efficacy)
T1 construct: expressed in transfected cells; host or cells: HEK cells (HEK-293), transient, co-transfected with pGloSensor22F

μOR = μOR (Homo sapiens, UniProt P35372); test: biochemical; format: binding
Chain of μOR (P35372 whole entry): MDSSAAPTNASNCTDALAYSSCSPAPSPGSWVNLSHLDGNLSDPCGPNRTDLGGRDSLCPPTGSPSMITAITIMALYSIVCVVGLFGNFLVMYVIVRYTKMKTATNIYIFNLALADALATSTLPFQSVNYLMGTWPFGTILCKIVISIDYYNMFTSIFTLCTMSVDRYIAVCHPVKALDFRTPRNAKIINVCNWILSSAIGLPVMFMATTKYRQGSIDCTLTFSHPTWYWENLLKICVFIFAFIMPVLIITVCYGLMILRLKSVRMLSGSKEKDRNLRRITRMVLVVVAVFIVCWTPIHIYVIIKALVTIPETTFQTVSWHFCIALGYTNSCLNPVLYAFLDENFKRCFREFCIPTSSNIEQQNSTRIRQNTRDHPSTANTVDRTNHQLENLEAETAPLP

wild-type C57Bl/6 mice [2] = test: Two-bottle choice alcohol paradigm (drinking in the dark, 10% ethanol vs. water); format: in vivo, mouse; settings: WT male mice
Protocol: (§1) Mice were subject to drinking in the dark (DID), limited access (4 h per day), two-bottle choice (10% ethanol vs. water) paradigm in which they were trained to consume alcohol voluntarily as previously described ([Rhodes et al., 2005]; [van Rijn and Whistler, 2009]). Mice reached stable alcohol consumption within 3 weeks of training, and after the third week, drug injections were administered prior to the daily drinking session on Friday. Drug’s effect on alcohol consumption was measured as the change in Friday’s alcohol intake minus the average alcohol intake from the preceding Tuesday–Thursday of that week (g∙kg^−1). A summary of all statistical analyses for the drinking data can be found in Supplemental Tables S6–S9. In brief, results from two-bottle choice alcohol consumption paradigms were assessed for statistical significance using RM two-way ANOVA for main effects of drug dose, treatment day, and drug dose × treatment day; Sidak’s multiple comparisons (MC) between alcohol consumption baseline (Tuesday–Thursday average) vs. treatment day consumption (Friday) were then used as the post hoc test for each drug dose tested. The same RM two-way ANOVA and Sidak’s MC post hoc analyses were used for water consumption and ethanol preference data. […] Sex differences between baseline data were evaluated using RM two-way ANOVA for main effects of sex, treatment baseline, and sex × treatment baseline; Sidak’s multiple comparisons (MC) between male and female mice were then used as the post hoc test for each treatment week tested.

κOR = κOR (Homo sapiens, UniProt P41145); test: biochemical; format: binding
Chain of κOR (P41145 whole entry): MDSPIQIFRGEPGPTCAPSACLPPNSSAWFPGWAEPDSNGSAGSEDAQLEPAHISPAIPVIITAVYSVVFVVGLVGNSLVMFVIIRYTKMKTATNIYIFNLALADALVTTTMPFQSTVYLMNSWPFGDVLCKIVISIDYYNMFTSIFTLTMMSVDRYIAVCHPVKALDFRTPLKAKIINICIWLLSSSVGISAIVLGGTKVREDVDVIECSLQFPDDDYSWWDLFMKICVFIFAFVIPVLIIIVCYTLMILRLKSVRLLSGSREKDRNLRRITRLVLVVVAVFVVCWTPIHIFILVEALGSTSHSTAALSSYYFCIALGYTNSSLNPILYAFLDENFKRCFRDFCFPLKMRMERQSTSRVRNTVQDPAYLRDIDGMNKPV

HA-mouse µOR [3] = biological target: T2, HA-mouse µOR (Mus musculus, UniProt P42866); test: cell-based; settings: for Emax: HEK293, read-out: cAMP α (% inhibition at maximal efficacy)
T2 construct: expressed in transfected cells; host or cells: HEK cells (HEK-293), transient, co-transfected with pGloSensor22F
T2 sequence (P42866 whole entry): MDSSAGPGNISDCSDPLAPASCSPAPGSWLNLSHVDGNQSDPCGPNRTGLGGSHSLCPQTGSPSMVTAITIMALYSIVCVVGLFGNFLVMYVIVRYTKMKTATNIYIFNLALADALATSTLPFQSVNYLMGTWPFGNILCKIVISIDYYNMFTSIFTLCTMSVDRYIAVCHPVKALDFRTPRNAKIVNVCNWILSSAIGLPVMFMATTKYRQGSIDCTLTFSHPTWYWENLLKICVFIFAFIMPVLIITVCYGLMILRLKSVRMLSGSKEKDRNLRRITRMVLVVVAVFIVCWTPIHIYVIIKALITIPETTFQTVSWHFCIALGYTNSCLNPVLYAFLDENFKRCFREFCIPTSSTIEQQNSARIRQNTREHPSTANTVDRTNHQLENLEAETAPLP

δOR [4] = biological target: T3, δOR (Homo sapiens, UniProt P41143); test: biochemical; format: binding
T3 sequence (P41143 whole entry): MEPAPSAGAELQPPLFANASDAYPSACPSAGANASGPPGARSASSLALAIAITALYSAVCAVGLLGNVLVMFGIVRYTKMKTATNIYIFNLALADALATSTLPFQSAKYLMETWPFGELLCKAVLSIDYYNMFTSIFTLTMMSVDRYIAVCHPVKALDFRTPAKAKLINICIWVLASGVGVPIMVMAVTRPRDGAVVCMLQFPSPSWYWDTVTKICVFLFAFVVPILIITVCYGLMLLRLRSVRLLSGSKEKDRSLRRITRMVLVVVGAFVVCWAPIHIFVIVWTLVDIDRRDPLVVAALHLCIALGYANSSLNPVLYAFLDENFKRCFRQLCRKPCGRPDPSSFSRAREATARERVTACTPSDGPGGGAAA

wild-type C57Bl/6 mice [5] = settings: cited from earlier work
[6] = tested on: wild-type and δOR KO male mice; test: Accelerating rotarod test; format: in vivo, mouse
Protocol: Mice were trained to walk on a rotarod apparatus (IITC, United States) with 1.25” diameter drums 2 days prior to drug testing. The rotarod started at 3 rpm and was increased to 30 rpm over 300 s. A trial for a mouse ended when it fell and tripped the sensor, when it rode the rotarod for two consecutive revolutions, or after 300 s (the maximum trial time)([White et al., 2015]). Mice received at least 3 min of rest between trials. On test day, baseline performance was assessed as the average latency to fall in three trials per mouse. […] Each mouse’s performance was normalized to its own baseline and reported as a percentage. A summary of all statistical analyses for the rotarod data can be found in Supplemental Table S2. In brief, data for each tested timepoint were calculated as a percentage of the baseline, and thus statistical significance was calculated in a two-tailed, one sample t test vs. a hypothetical mean of 100 (baseline was 100%). Rotarod results between WT and δOR KO genotypes were compared with a mixed-effects model with fixed effects for timepoint, genotype, and timepoint × genotype.

δOR KO mice = test: Two-bottle choice alcohol paradigm (drinking in the dark, 10% ethanol vs. water); format: in vivo, mouse; settings: speciociliatine 30 mg∙kg^−1 i.p.; δOR KO male mice
Protocol: as §1

FLAG-mouse κOR [7] = biological target: T4, FLAG-mouse κOR (Mus musculus, UniProt P33534); test: cell-based
T4 construct: expressed in transfected cells; host or cells: HEK cells (HEK-293), transient, co-transfected with pGloSensor22F
T4 sequence (P33534 whole entry): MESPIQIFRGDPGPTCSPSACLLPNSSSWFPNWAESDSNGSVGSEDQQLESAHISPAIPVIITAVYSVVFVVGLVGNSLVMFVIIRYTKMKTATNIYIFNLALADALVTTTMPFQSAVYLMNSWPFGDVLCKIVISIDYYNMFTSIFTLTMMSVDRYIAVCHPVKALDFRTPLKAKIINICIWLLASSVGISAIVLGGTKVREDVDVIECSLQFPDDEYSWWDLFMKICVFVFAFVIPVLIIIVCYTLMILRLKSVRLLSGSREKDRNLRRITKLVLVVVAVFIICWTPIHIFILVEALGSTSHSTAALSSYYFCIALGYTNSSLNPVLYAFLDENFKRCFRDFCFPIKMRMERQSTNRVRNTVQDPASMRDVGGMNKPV

C57Bl/6 male mice [8] = test: Locomotor evaluation (ambulation); settings: 7-hydroxymitragynine 3 mg∙kg^−1 i.p.; naloxone 1 mg∙kg^−1 s.c. 10 min prior; WT male mice; 90 min
FLAG-mouse κOR [9] = biological target: T4, FLAG-mouse κOR; parameters: method as in Gutridge et al., 2020; settings: cited from earlier work
C57Bl/6 male mice [10] = settings: 3 mg∙kg^−1; ref Gutridge et al., 2020; cited from earlier work
FLAG-mouse δOR [11] = biological target: T1, FLAG-mouse δOR; parameters: method as in Gutridge et al., 2020; settings: cited from earlier work
δOR [12] = biological target: T3, δOR; parameters: expressed in transfected cells; method as in Gutridge et al., 2020; settings: ref Gutridge et al., 2020; cited from earlier work
HA-mouse µOR [13] = biological target: T2, HA-mouse µOR; settings: cited from earlier work
[14] = 7-hydroxypaynantheine 30 mg∙kg^−1 s.c.
[15] = 30 mg∙kg^−1 i.p., wild-type mice
[16] = speciociliatine 3, 10 and 30 mg∙kg^−1 i.p.
[17] = read-out: cAMP IC50, ref Gutridge et al., 2020

T1 sequence (P32300 whole entry): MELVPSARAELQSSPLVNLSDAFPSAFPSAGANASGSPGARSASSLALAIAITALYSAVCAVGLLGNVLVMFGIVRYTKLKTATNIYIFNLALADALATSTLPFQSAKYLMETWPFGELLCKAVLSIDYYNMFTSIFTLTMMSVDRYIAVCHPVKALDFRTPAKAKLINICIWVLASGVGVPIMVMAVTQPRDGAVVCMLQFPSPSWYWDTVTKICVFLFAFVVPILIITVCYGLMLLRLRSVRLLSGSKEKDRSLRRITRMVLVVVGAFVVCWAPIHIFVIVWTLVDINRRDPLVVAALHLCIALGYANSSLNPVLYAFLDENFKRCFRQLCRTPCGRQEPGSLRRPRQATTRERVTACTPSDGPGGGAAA

With C=C[C@H]1CN2CC[C@@]3(O)C(=Nc4cccc(OC)c43)[C@@H]2C[C@@H]1/C(=C\OC)C(=O)OC [7OH PAYN, 7-Hydroxypaynantheine] as the compound, how does the IC50 (FLAG-mouse δOR [1]) read?
The IC50 was 5740 nM.

And the Emax (FLAG-mouse δOR [1])?
The Emax was 70 ± 20%.

And the Ki (μOR)?
The Ki was 6150 nM.

What about the “Decrease in ethanol consumption” value (wild-type C57Bl/6 mice [2]; 30 mg∙kg^−1 s.c.) of the same compound?
Its value is 1.1 ± 0.3 g/kg.

And the “Reduction in ethanol consumption” value (wild-type C57Bl/6 mice [2]; 30 mg∙kg^−1 s.c.)?
The value was 40 ± 11%.

And the Ethanol preference (wild-type C57Bl/6 mice [2]; [14])?
The Ethanol preference was “corresponding decrease in ethanol preference”.

What about the Water consumption (wild-type C57Bl/6 mice [2]; [14]) of the same compound?
The Water consumption was “concomitant increase in water consumption”.

And the Alcohol intake (wild-type C57Bl/6 mice [2]; 7-hydroxypaynantheine 10 and 30 mg∙kg^−1 s.c.)?
The Alcohol intake was “significantly reduce alcohol intake”.

What about the Ki (κOR; Binding Ki (µM)) of the same compound?
Its Ki is 7.46 µM.

What about the IC50 (HA-mouse µOR [3]) of the same compound?
The IC50 was 21800 nM.

And the Emax (HA-mouse µOR [3])?
The Emax was 80 ± 40%.

And the Ki (δOR [4])?
Its Ki is 12700 nM.

For COc1ccsc1CNCC[C@@]1(c2ccccn2)CCOC2(CCCC2)C1 [Oliceridine/TRV130, Oliceridine], which Alcohol consumption (wild-type C57Bl/6 mice [5]; selective activation of μOR G-protein signaling, ref Gutridge et al., 2020) is on record?
The Alcohol consumption was “did not decrease alcohol consumption”.

For Oc1ccc2c3c1O[C@H]1c4[nH]c5ccccc5c4C[C@@]4(O)[C@@H](C2)N(CC2CC2)CC[C@]314 [naltrindole], which Alcohol intake (wild-type C57Bl/6 mice [5]; 10 mg∙kg^−1, ref van Rijn and Whistler, 2009) is on record?
Its Alcohol intake is “does not decrease alcohol intake”.

With CC[C@@H]1CN2CCc3c([nH]c4cccc(OC)c34)[C@H]2C[C@@H]1/C(=C\OC)C(=O)OC [SPECIO, speciociliatine] as the compound, how does the “Seizure level observed in the rotarod assay” value ([6]; 30 mg/kg i.p., one δOR KO mouse) read?
The value was 5–6.

And the “Mortality in the rotarod assay” value ([6]; 30 mg/kg i.p., δOR KO mice (n = 8))?
The value was “one δOR KO mouse died”.

And the “Rotarod performance (latency to fall, % of baseline)” value [6, 15]?
The value was “significantly reduced the ability”.

And the “Time of full recovery on rotarod” value [6, 15]?
The value was 120 min.

And the Rotarod performance ([6]; 30 mg∙kg^−1 i.p., δOR KO mice)?
The Rotarod performance was “same effect was observed”.

What about the Ethanol preference (δOR KO mice) of the same compound?
The Ethanol preference was “significantly decreased”.

And the Water consumption (δOR KO mice)?
The Water consumption was “did not change water consumption”.

And the “Average decrease in ethanol consumption” value (wild-type C57Bl/6 mice [2]; 30 mg∙kg^−1 i.p.)?
Its value is 2.5 ± 0.3 g/kg.

And the “Reduction in ethanol consumption” value (wild-type C57Bl/6 mice [2]; 30 mg∙kg^−1 i.p.)?
Its value is 90 ± 3%.

And the Ethanol preference (wild-type C57Bl/6 mice [2]; speciociliatine 30 mg∙kg^−1 i.p.)?
The Ethanol preference was “significantly decreased”.

And the Ethanol consumption (wild-type C57Bl/6 mice [2]; [16])?
Its Ethanol consumption is “significantly decreased ethanol consumption but only at the 30 mg∙kg^−1 dose”.

What about the Water consumption (wild-type C57Bl/6 mice [2]; [16]) of the same compound?
Its Water consumption is “did not change water consumption”.

And the Ki (κOR; Binding Ki (µM))?
The Ki was 0.59 µM.

And the Ki (δOR [4])?
Its Ki is 4340 nM.

And the Emax (FLAG-mouse κOR [7]; HEK293, read-out: cAMP α (% inhibition at maximal efficacy))?
The Emax was 60 ± 7%.

For CC[C@@H]1CN2CC[C@@]3(O)C(=Nc4cccc(OC)c43)[C@@H]2C[C@@H]1/C(=C\OC)C(=O)OC [7-OH MITRA, 7-hydroxymitragynine, reference compound], which “Hyperlocomotion induced by 7-hydroxymitragynine after naloxone pretreatment” value (C57Bl/6 male mice [8]) is on record?
The value was “blocked”.

And the “Minimal effective dose to reduce alcohol intake” value (wild-type C57Bl/6 mice [5]; ref Gutridge et al., 2020)?
The value was 3 mg/kg.

What about the “cAMP α” value (FLAG-mouse κOR [9]; normalized to U50,488, ref Gutridge et al., 2020) of the same compound?
The value was 77 ± 5.

And the IC50 (FLAG-mouse κOR [9]; [17])?
Its IC50 is 1040 nM.

And the “Hyperlocomotion and CPP” value (C57Bl/6 male mice [10])?
The value was “caused both hyperlocomotion and CPP”.

And the “cAMP α” value (FLAG-mouse δOR [11]; normalized to Leu-enkephalin, ref Gutridge et al., 2020)?
Its value is 80 ± 8.

And the IC50 (FLAG-mouse δOR [11]; [17])?
The IC50 was 960 nM.

What about the Ki (κOR; Binding Ki (µM)) of the same compound?
Its Ki is 0.14 µM.

What about the “β-arrestin 2 α” value (δOR [12]) of the same compound?
The value was 14 ± 1.

And the “cAMP α” value (HA-mouse µOR [13])?
Its value is 84 ± 3.

What about the Ki (δOR [4]) of the same compound?
Its Ki is 190 nM.

What does the source list for CC[C@H]1CN2CCc3c([nH]c4cccc(OC)c34)[C@@H]2C[C@@H]1/C(=C\OC)C(=O)OC [SPG, speciogynine]?
Ki (κOR; Binding Ki (µM)): 3 µM; Ki (κOR; Binding pKi): 3.98 µM

Which Alcohol consumption (wild-type C57Bl/6 mice [5]; 6 and 10 mg∙kg^−1, ref van Rijn and Whistler, 2009) does the source give for Oc1ccc2c3c1O[C@H]1c4oc5ccccc5c4C[C@@]4(O)[C@@H](C2)N(CC2CC2)CC[C@]314 [naltriben] here?
The Alcohol consumption was “dose-dependently decreases alcohol consumption”.

Which IC50 (FLAG-mouse δOR [1]) does the source give for CC[C@H]1CN2CC[C@]3(Nc4cccc(OC)c4C3=O)[C@@H]2C[C@@H]1/C(=C\OC)C(=O)OC [SPG PI, Speciogynine Pseudoindoxyl] here?
Its IC50 is 8530 nM.

And the Emax (FLAG-mouse δOR [1])?
The Emax was 80 ± 20%.

And the Ki (μOR)?
Its Ki is 77 nM.

And the Ki (κOR)?
The Ki was 0.75 µM.

What about the IC50 (HA-mouse µOR [3]) of the same compound?
Its IC50 is 230 nM.

And the Emax (HA-mouse µOR [3])?
Its Emax is 58 ± 4%.

What about the Ki (δOR [4]) of the same compound?
The Ki was 940 nM.

And the IC50 (FLAG-mouse κOR [7])?
The IC50 was 20600 nM.

What does the source list for C=CC1CN2CCC3(Nc4cccc(OC)c4C3=O)C2CC1C(=COC)C(=O)OC (centres unmarked) [PAYN PI, Paynantheine Pseudoindoxyl]?
Ki (μOR): 680 nM; Ki (κOR; Binding Ki (µM)): 1.31 µM; IC50 (HA-mouse µOR [3]): 4820 nM; Emax (HA-mouse µOR [3]): 60 ± 6%; Ki (δOR [4]): 920 nM
